Measurements published in patent publication US20250295579A1, “SKIN CARE COMPOSITION AND USES THEREOF” (S-BIOMEDIC NV, priority 2022, published 2025).

How the values were obtained:
Experiment in all cases: Influence of cosmetic ingredients on C. acnes growth in 96-well plates (OD600)
Type in all cases: cell-based, Cutibacterium acnes
[1] = system: C. acnes A1 strain; conditions: PBS 1% w/v peptone
Procedure: (§1) One day before the experiment: starter bacterial cultures of C. acnes A1, D1, H1 and K8 strains from the working cell bank (WCB) glycerol stocks were prepared in a final volume of 15 ml. The C. acnes strains were isolated from healthy volunteers and they were characterized for their growth, 16S and SLST sequence to identify the specific strain. The volumes of WCB were 1 ml for A1 and 300 μl for D1, H1, and K8. The cultures were incubated overnight at 37° C.
(§2) At the day of the experiment, after 24 h incubation, inoculums were taken out of the incubator and homogenized with vortex. 50 μl aliquots were separated from each inoculum to 1.5 ml tubes and their OD600 was measured by Nanodrop.
(§3) Each aliquot was measured twice and its OD600 was determined by calculating the mean value. The tubes were centrifuged (3000 rcf, 5 min) and the supernatant was discarded. The pellet was resuspended in 15 ml of PBS (phosphate buffered saline). This washing, consisting of centrifugation, discarding the supernatant, and resuspension was repeated. Then, the OD600 was adjusted in PBS to 2 for each strain. Small aliquots were separated and read on Nanodrop again at the end of this process to ensure a starting OD600 of 2 (+/−0.2) in the bacterial cultures.
(§4) All the ingredients were tested in either of the two different media: PBS 3% w/v Glucose and PBS 1% w/v Peptone. Additionally, all strains were grown on PBS and PBS 3% w/v Glucose 1% w/v Peptone, as negative and positive control, respectively.
(§5) Medium was prepared at 2.5×concentration and then diluted to 1× when mixed with the ingredient and inoculum into the test plates.
(§6) PBS 7.5% w/v Glucose media was filter sterilized (Millipore pump). 50% w/v Peptone diluted in ultrapure water (Milli-Q) was prepared, autoclaved and then diluted to 2.5% w/v with PBS. PBS 7.5% w/v Glucose 2.5% w/v peptone media was prepared diluting 50% Peptone on filtered PBS 7.125% Glucose.
(§7) The range of concentrations tested was based on the concentration that the chosen compound could have in the final cosmetic product. Three different concentrations were tested for each ingredient: maximum concentration, minimum concentration and a concentration in the middle between the maximum and minimum concentration (half of the highest one).
(§8) All compounds were prepared on milliQ water. 50 ml of stocks for each ingredient were prepared at double of the highest concentration to be tested. After solubilization, the ingredients were filter sterilized.
(§9) The experiment was performed in transparent 96-well plates. Each one of them contained one media (either peptone or glucose), one strain inoculum and either of the ingredients. The final volume in each well was 200 μl: 100 μl of 2× ingredient, 80 μl of 2.5× medium and 20 μl of bacterial inoculum of OD600. Triplicates were done for every condition. Controls without ingredient and without bacteria were included in this experiment to detect possible contaminations.
(§10) One 96-well 2 ml deep well-plate was used for each batch. The double concentrated ingredients were distributed manually on the deep well plate and the corresponding serial dilutions were performed on PBS with an automatic multichannel pipette. Then, the content of each deep well plate was distributed to 8 different 96-standard well plate with Zephyr SPE workstation (automated liquid handler).
(§11) 100 μl of ingredient per well were transferred to each plate. The zephyr program contained a resuspension step on the deep well plate and a step in which the tips leaned on the sides of each well of the plates to ensure the accurate volume disposal.
(§12) Once the 100 μl of ingredient were transferred to each plate, 80 μl of either Glucose or Peptone medium was poured into the plate with Multidrop Combi Plate dispenser (Thermo Fisher). The multidrop was also used to dispense 20 μl per well of the corresponding strain inoculum, which was previously prepared as described in the previous part. […]

[2] = system: C. acnes D1 strain
Procedure: as §1, §2, §3, §4, §5, §6, §7, §8, §9, §10, §11, §12

[3] = system: C. acnes H1 strain
Procedure: as §1, §2, §3, §4, §5, §6, §7, §8, §9, §10, §11, §12

[4] = system: C. acnes K8 strain
Procedure: as §1, §2, §3, §4, §5, §6, §7, §8, §9, §10, §11, §12

[5] = 1% v/v glycerol, PBS 1% w/v peptone, FIG. 1
[6] = 3% w/v sodium lactate, PBS 1% w/v peptone, FIG. 3
[7] = 1% w/v sorbitol, PBS 1% w/v peptone, FIG. 2
[8] = 0.075% w/v sodium cetaryl sulphate, PBS 3% w/v glucose, FIG. 5

OCC(O)CO [Glycerol]
improvement of growth compared to the peptone control condition ([1]; 1% v/v glycerol, FIG. 1): four
improvement of growth compared to the peptone control condition [2, 5]: four
improvement of growth compared to the peptone control condition [3, 5]: four
improvement of growth compared to the peptone control condition [4, 5]: four

CC(O)C(=O)[O-].[Na+] (stereo not drawn) [Sodium lactate, sodium lactate]
effect on growth ([1]; 3% w/v sodium lactate, FIG. 3): improved the growth
effect on growth [2, 6]: improved the growth
effect on growth [3, 6]: improved the growth
effect on growth [4, 6]: improved the growth of the four tested strains, with a higher effect on the strain K8

OC[C@@H](O)[C@@H](O)[C@H](O)[C@@H](O)CO [Sorbitol]
effect on growth ([1]; 1% w/v sorbitol, FIG. 2): improved the growth
effect on growth [2, 7]: improved the growth
growth improved by a factor [3, 7]: 4.5
effect on growth [4, 7]: improved the growth

sodium cetearyl sulphate [Sodium cetaryl sulphate]
effect on growth [2, 8]: selectively and significantly improved the growth
effect on growth [3, 8]: selectively and significantly improved the growth
effect on growth [4, 8]: Negative effect
